Series [1] is described as follows: Differential scanning calorimetry (DSC) of drug samples. The format is physicochemical. The following applies: for ΔHc / Tg of drug: DSC scanning rate 10° C./min. On the procedure: The amorphous state of the amorphous drug core is determined by subjecting a population of nanoparticles that comprise one or more nanoparticles that comprise the recited amorphous drug core to differential scanning calorimetry (DSC). In an embodiment, a DSC method according to the invention used a Perkin-Elmer DSC-7 or a Diamond DSC calorimeter applied for the measurement of specific transition temperatures of tested samples. […] The instrument was calibrated using indium, tin and zinc certified reference materials (CRMs) The amorphous state of the amorphous drug core, as measured by DSC is expressed as a weight fraction of the weight of amorphous material in the amorphous drug core to the total weight of the amorphous drug core, expressed as an average value across the population of nanoparticles being measured. For instance, if a population of nanoparticles was measured using DSC, and the amorphous state was determined to be a particular value for the population, that value would be considered the average amorphous state for each nanoparticle within the population. An inventive amorphous drug core may contain a small amount of crystalline drug. […] “Glass forming ability” or “GFA” means the ratio of Tg to Tm. It can be calculated as: […] is a measure of the tendency of an amorphous drug to remain in an amorphous state. […] “Glass transition temperature” or “Tg” means that temperature at which a material transitions to a glassy state from a liquid state, as measured at standard atmospheric pressure. […] C. […] C.
Background: DSC measures the heat that a sample takes up or gives off during a temperature scan.

A short description of the next series: Water solubility of drug. The class given is physicochemical. To be noted: 25 °C. On the procedure: “Water solubility” means a measure of the maximum possible concentration of a drug dissolved in water. The water temperature may be specified; in an embodiment water solubility is determined at 25 Deg. C. Units of measurement of water solubility are typically mass/volume, such as mg/ml. The water solubility of drug useful in the practice of the present invention is less than or equal to about 1 mg/ml at 25 Deg. C.; preferably less than or equal to about 0.1 mg/ml at 25 Deg. C.; more preferably less than or equal to about 0.01 mg/ml at 25 Deg. C., still more preferably less than or equal to about 1 microgram/ml at 25 Deg. C.

Where only a bound is given, the exact number is not on record here.

In series [1], `CC(C)(C)c1ccc(C(O)CCCN2CCC(C(O)(c3ccccc3)c3ccccc3)CC2)cc1` (stereo not shown) [Crystalline terfenadine, terfenadine] had a ΔHc of 108.63 J/g.

Turning to `O=C(NN1CCCCC1)c1nn(-c2ccc(Cl)cc2Cl)c2c1CCC/C2=C\c1ccc(F)cc1` [Crystalline COMPOUND 1], in series [1], the ΔHc is 77.64 J/g.

In the case of `CC(C)(C)c1ccc(C(O)CCCN2CCC(C(O)(c3ccccc3)c3ccccc3)CC2)cc1` (stereo not shown) [terfenadine, Terfenadine], in series [1], the “glass forming ability (GFA), Tg/Tm” value was 0.77.

In series [1], `CC(C)(C)c1ccc(C(O)CCCN2CCC(C(O)(c3ccccc3)c3ccccc3)CC2)cc1` (stereo not shown) [Amorphous terfenadine, terfenadine] showed a Tg of drug of 53.77 °C and a ΔHc of 10.35 J/g. The “crystallinity (crystalline portion) by DSC” value in series [1] (relative to original crystallinity) was “less than 20%”.

In the case of `O=C(NN1CCCCC1)c1nn(-c2ccc(Cl)cc2Cl)c2c1CCC/C2=C\c1ccc(F)cc1` [COMPOUND 1], in “Water solubility of drug”, the solubility – broadly, the concentration that dissolves in the medium under given conditions – is no more than 0.2 ng/mL. Besides, the “glass forming ability (GFA), Tg/Tm” value in series [1] worked out at 0.81.

Regarding `O=C(NN1CCCCC1)c1nn(-c2ccc(Cl)cc2Cl)c2c1CCC/C2=C\c1ccc(F)cc1` [Amorphous COMPOUND 1], in series [1], the Tg of drug was found to be 87.07 °C and the ΔHc is 0 J/g.

Values taken from US20080299210A1, “STABLE NANOSIZED AMORPHOUS DRUG” (priority 2006, published 2008).
